The results in this text go back to patent publication US9765075B2, “Substituted bridged urea analogs as sirtuin modulators” (GLAXOSMITHKLINE LLC, priority 2013, dated 2017).

Like-named read-outs stand apart in the source and are kept apart here. Bounds are passed on as bounds.

This test has as its target T1, SIRT1 (Homo sapiens, UniProt Q96EB6).
T1 sequence (Q96EB6 1-747): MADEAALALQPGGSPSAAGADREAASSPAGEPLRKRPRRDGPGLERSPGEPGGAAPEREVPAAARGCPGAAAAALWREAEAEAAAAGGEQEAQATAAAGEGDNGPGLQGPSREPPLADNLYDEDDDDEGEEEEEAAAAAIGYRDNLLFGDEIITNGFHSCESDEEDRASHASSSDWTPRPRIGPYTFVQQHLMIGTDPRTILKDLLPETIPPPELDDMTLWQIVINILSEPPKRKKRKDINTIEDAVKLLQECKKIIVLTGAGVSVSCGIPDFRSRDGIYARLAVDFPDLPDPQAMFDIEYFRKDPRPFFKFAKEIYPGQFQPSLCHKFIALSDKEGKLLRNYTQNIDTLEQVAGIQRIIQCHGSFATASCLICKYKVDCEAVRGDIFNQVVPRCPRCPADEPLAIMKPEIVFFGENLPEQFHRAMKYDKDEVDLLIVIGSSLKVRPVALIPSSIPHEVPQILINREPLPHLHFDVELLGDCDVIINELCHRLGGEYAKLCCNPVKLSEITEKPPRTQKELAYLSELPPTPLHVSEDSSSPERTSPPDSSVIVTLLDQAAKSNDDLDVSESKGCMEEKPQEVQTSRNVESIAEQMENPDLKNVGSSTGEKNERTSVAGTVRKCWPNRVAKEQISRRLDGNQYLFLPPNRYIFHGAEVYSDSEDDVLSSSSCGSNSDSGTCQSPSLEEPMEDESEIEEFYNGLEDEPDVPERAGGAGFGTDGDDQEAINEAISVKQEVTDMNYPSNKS
The experiment in a line: Trp mass spectrometry assay (SIRT1 activation). In kind it is biochemical. The following applies: for Emax: percent maximum fold activation of SIRT1, read-out: Tryp % Fold Act. The method in brief:
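N-His-tagged SIRT1 (10 nM), expressed in E. coli, was incubated with 0.5 μM Ac-RHKK(Ac)W-NH2 peptide and 120 μM NAD+ for 25 min at 25 °C in HEPES pH 7.5 with […]. The reaction was stopped with formic acid and O-acetyl-ADP-ribose or deacetylated peptide was quantified by mass spectrometry. Results are given as EC1.5 and percent maximal activation relative to DMSO control.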

The mark [1] stands for this setting: concentration of test compound that results in 150% activation of SIRT1, Trp peptide substrate.
Where [2] appears, read: Trp mass spectrometry assay, EC1.5 = concentration giving 150% activation of SIRT1.
Setting [3] is: Trp mass spectrometry assay, EC1.5 = concentration of test compound that results in 150% activation of SIRT1.

For the molecule `O=C(Nc1cccnc1)N1c2nc(N3CCCC(C(F)(F)F)C3)ccc2N2CCC[C@H]1C2` (stereo partly shown) [Example 288], the “Tryp AVG EC1.5 (μM)” value under setting [1] is on record as “A (EC1.5<1 μM)”. Moreover, where the note is “Trp peptide substrate”, the Emax was no less than 150%. For the molecule `O=C(Nc1ccc(Oc2ccccc2)cc1)N1c2nc(-c3cccc(C(F)(F)F)c3)ccc2N2CC[C@H]1C2` [Example 641], the “Tryp AVG EC1.5 (μM)” value under setting [2] is “C (EC1.5>25 μM)”. Further, the Emax (Trp mass spectrometry assay) was less than 150%.

In the case of `Cc1nc(NC(=O)N2c3nc(-c4cncc(C(F)(F)F)c4)ccc3N3C[C@@H](O)[C@H]2C3)sc1C` [Example 697], under setting [2], the “Tryp AVG EC1.5 (μM)” value is recorded as “B (EC1.5 1-25 μM)”. Besides, the Emax (Trp mass spectrometry assay) was no less than 150%. With `O=C(Nc1cnccn1)N1c2nc(-c3cc(F)c(F)c(F)c3)ccc2N2CC[C@H]1C2` [Example 416], the “Tryp AVG EC1.5 (μM)” value under setting [1] is “C (EC1.5>25 μM)”. Besides, under “Trp peptide substrate”, the Emax was less than 150%. With `CC(C)(C)OC(=O)NCCCc1cc(NC(=O)N2c3nc(-c4cccc(C(F)(F)F)c4)ccc3N3CCC[C@H]2C3)cc(-c2cnco2)c1` [Example 754], the “Tryp AVG EC1.5 (μM)” value under setting [2] is reported as “A (EC1.5<1 μM)”. Consider `O=C(Nc1cc(O)ncn1)N1c2nc(N3CCCC(C(F)(F)F)C3)ccc2N2CCC[C@H]1C2` (stereo partly shown) [Example 361], for which the “Tryp AVG EC1.5 (μM)” value under setting [1] is recorded as “A (EC1.5<1 μM)”. The Emax (Trp peptide substrate) was no less than 150%.

For the molecule `C#CCOc1cc(-c2ccc3c(n2)N(C(=O)Nc2cccc(C4(C(F)(F)F)N=N4)c2)[C@H]2CCN3C2)cc(C(F)(F)F)c1` [Example 800], the “Tryp AVG EC1.5 (μM)” value under setting [2] is reported as “C (EC1.5>25 μM)”. In addition, the Emax (Trp mass spectrometry assay) was less than 150%. `COc1cc(NC(=O)N2c3nc(-c4ccnc(N5CCC(F)(F)C5)c4)ccc3N3CC[C@H]2C3)ncn1` [Example 390]: the “Tryp AVG EC1.5 (μM)” value under setting [1] is reported as “B (EC1.5 1-25 μM)”. In addition, the Emax (Trp peptide substrate) was no less than 150%.

Take `O=C(Nc1cccc(C(F)(F)F)c1)N1c2nc(-c3cccc(C(F)(F)F)c3)ccc2N2CC[C@H]1C2` [Example 617]: the “Tryp AVG EC1.5 (μM)” value under setting [1] is “A (EC1.5<1 μM)”. Moreover, where the note is “Trp peptide substrate”, the Emax was no less than 150%. With `NCCCc1cc(NC(=O)N2c3nc(-c4cccc(C(F)(F)F)c4)ccc3N3CC[C@H]2C3)cc(-c2cnco2)c1` [Example 770], under setting [2], the “Tryp AVG EC1.5 (μM)” value is “A (EC1.5<1 μM)”. For the same molecule, the Emax (Trp mass spectrometry assay) was no less than 150%.

Regarding `O=C(Nc1cccc(CN2CCNCC2)c1)N1c2nc(-c3cccc(C(F)(F)F)c3)ccc2N2CC[C@H]1C2` [Example 731], the “Tryp AVG EC1.5 (μM)” value under setting [2] was “A (EC1.5<1 μM)”. The Emax (Trp mass spectrometry assay) is no less than 150%. For the molecule `O=C(Nc1cccnc1)N1c2nc(-c3cnn(-c4ccccc4)c3)ccc2N2CC[C@H]1C2` [Example 549], the “Tryp AVG EC1.5 (μM)” value under setting [1] is “B (EC1.5 1-25 μM)”. In addition, the Emax (Trp peptide substrate) was no less than 150%. With `Cc1nc(NC(=O)N2c3nc(N4CCCC(C(F)(F)F)C4)ccc3N3CC[C@H]2C3)sc1C` (stereo partly shown) [Example 215], the “Tryp AVG EC1.5 (μM)” value under setting [3] is given as “B (EC1.5 1-25 μM)”. Also, the Emax (Trp mass spectrometry assay) was no less than 150%. Regarding `O=C(Nc1cccnn1)N1c2nc(-c3cccnc3)ccc2N2CCC[C@H]1C2` [Example 457], the “Tryp AVG EC1.5 (μM)” value under setting [1] is listed as “B (EC1.5 1-25 μM)”.

Consider `O=C(Nc1ccccn1)N1c2nc(-c3ccnc(N4CC[C@@H](F)C4)c3)ccc2N2CC[C@H]1C2` [Example 448], for which, under setting [1], the “Tryp AVG EC1.5 (μM)” value is “B (EC1.5 1-25 μM)”. Also, the Emax (Trp peptide substrate) was no less than 150%. The corresponding values for `Cc1nc(C)c(-c2ccc3c(n2)N(C(=O)Nc2cccnc2)[C@H]2CCN3C2)s1` [Example 495] are “B (EC1.5 1-25 μM)” and no less than 150%. Regarding `CN(C)c1cc(NC(=O)N2c3nc(N4CCCC(C(F)(F)F)C4)ccc3N3CC[C@H]2C3)ccn1` (stereo partly shown) [Example 216], the “Tryp AVG EC1.5 (μM)” value under setting [3] was “A (EC1.5<1 μM)”. For the same molecule, under “Trp mass spectrometry assay”, the Emax was no less than 150%.

For the molecule `O=C(Nc1cccc(-c2cnco2)c1)N1c2nc(-c3cccc(C(F)(F)F)c3)ccc2N2CC[C@H]1C2` [68 (1)], the “Tryp AVG EC1.5 (μM)” value under setting [3] is given as “A (EC1.5<1 μM)”. Also, the Emax (Trp mass spectrometry assay) was no less than 150%. For `CC(=O)c1sc(NC(=O)N2c3nc(-c4cccc(C(F)(F)F)c4)ccc3N3CC[C@H]2C3)nc1C` [Example 75], the “Tryp AVG EC1.5 (μM)” value under setting [3] is recorded as “A (EC1.5<1 μM)”. Also, the Emax (Trp mass spectrometry assay) was no less than 150%.

On to `CN(C)c1ccc(-c2ccc3c(n2)N(C(=O)Nc2ccccn2)[C@H]2CCN3C2)cn1` [Example 345], for which, under setting [1], the “Tryp AVG EC1.5 (μM)” value is “B (EC1.5 1-25 μM)”. The Emax (Trp peptide substrate) was no less than 150%. The corresponding values for `N#Cc1cncc(-c2ccc3c(n2)N(C(=O)Nc2ccncn2)[C@H]2CCCN3C2)c1` [Example 558] are “B (EC1.5 1-25 μM)” and no less than 150%. For the molecule `Cc1cncc(NC(=O)N2c3nc(-c4cncc(C(F)(F)F)c4)ccc3N3C[C@@H](O)[C@H]2C3)c1` [Example 690], under setting [2], the “Tryp AVG EC1.5 (μM)” value is “B (EC1.5 1-25 μM)”. The Emax (Trp mass spectrometry assay) is no less than 150%. With `CC(C)(C)c1csc(NC(=O)N2c3nc(-c4cccc(C(F)(F)F)c4)ccc3N3CC[C@H]2C3)n1` [Example 72], the Emax (Trp mass spectrometry assay) is no less than 150%. Consider `Cc1nn(C)c(C)c1-c1ccc2c(n1)N(C(=O)Nc1cccnc1)[C@H]1CCN2C1` [Example 486], for which, under setting [1], the “Tryp AVG EC1.5 (μM)” value is “C (EC1.5>25 μM)”. Moreover, the Emax (Trp peptide substrate) is no less than 150%. In the case of `O=C1C=CC2=C(c3ccc(NC(=S)NCc4ccc(NC(=O)N5c6nc(-c7cccc(C(F)(F)F)c7)ccc6N6CC[C@H]5C6)cc4)cc3C(=O)O)C3C=CC(O)=CC3OC2=C1` (stereo partly shown) [Example 530], under setting [1], the “Tryp AVG EC1.5 (μM)” value is recorded as “A (EC1.5<1 μM)”. Besides, the Emax (Trp peptide substrate) was no less than 150%. The corresponding values for `COc1cc(NC(=O)N2c3nc(-c4ccnc(C)c4)ccc3N3CC[C@H]2C3)ncn1` [Example 240] are “B (EC1.5 1-25 μM)” and no less than 150%. For `O=C(Nc1cnccn1)N1c2nc(-c3cccc(C(F)(F)F)c3)ccc2N2CCC1CC2` [Example 472] the same measures were “A (EC1.5<1 μM)” and no less than 150%.

For `O=C(Nc1ccc(F)cn1)N1c2nc(-c3ccccc3C(F)(F)F)ccc2N2CC[C@H]1C2` [Example 123], the “Tryp AVG EC1.5 (μM)” value under setting [3] was “C (EC1.5>25 μM)”. Besides, the Emax (Trp mass spectrometry assay) was less than 150%. `Cc1ccc(-c2ccc3c(n2)N(C(=O)Nc2ccncn2)[C@H]2CCCN3C2)cn1` [Example 479]: the “Tryp AVG EC1.5 (μM)” value under setting [1] was “B (EC1.5 1-25 μM)”. The Emax (Trp peptide substrate) was no less than 150%. In the case of `COc1ncc(-c2ccc3c(n2)N(C(=O)Nc2cnccn2)[C@H]2CCN3C2)c(OC)n1` [Example 398], the “Tryp AVG EC1.5 (μM)” value under setting [1] is on record as “B (EC1.5 1-25 μM)”. Also, the Emax (Trp peptide substrate) was no less than 150%. The corresponding values for `O=C(NCCCc1ccccc1)N1c2nc(-c3cccc(C(F)(F)F)c3)ccc2N2CC[C@H]1C2` [Example 599] are “B (EC1.5 1-25 μM)” and no less than 150%. `CC(=O)c1cc(F)c(NC(=O)N2c3nc(-c4cccc(C(F)(F)F)c4)ccc3N3CC[C@H]2C3)c(F)c1` [Example 78]: the Emax (Trp mass spectrometry assay) was no less than 150%. On to `COc1cc(-c2cccc(C(F)(F)F)c2)nc2c1N1CC[C@@H](C1)N2C(=O)Nc1ccncc1` [Example 160], for which the “Tryp AVG EC1.5 (μM)” value under setting [3] was “A (EC1.5<1 μM)”. The Emax (Trp mass spectrometry assay) is no less than 150%.

With `CS(=O)(=O)Nc1cccc(-c2ccc3c(n2)N(C(=O)Nc2cnccn2)[C@H]2CCN3C2)c1` [Example 418], the “Tryp AVG EC1.5 (μM)” value under setting [1] was “B (EC1.5 1-25 μM)”. Moreover, the Emax (Trp peptide substrate) is no less than 150%. For `O=C(Nc1cccnc1)N1c2nc(C3CCCC(C(F)(F)F)C3)ccc2N2CC[C@H]1C2` (stereo partly shown) [Example 99], the “Tryp AVG EC1.5 (μM)” value under setting [3] is “A (EC1.5<1 μM)”. In addition, under “Trp mass spectrometry assay”, the Emax was no less than 150%.

Take `Cc1nc(NC(=O)N2c3nc(-c4cccc(C(F)(F)F)c4)ccc3N3CCC[C@H]2C3)sc1C` [Example 33]: the Emax (Trp mass spectrometry assay) was no less than 150%.
